Measurements taken from the supplement of paper PMC11451515.

Experiments:
Conditions in all cases: 48 h
[1] = system: P12-Ichikawa; assay: AUC of viability dose-response curve (% viability x log10 dose units); higher = less sensitive
Summary of the method: (§1)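 In 1536-well plates, leukemia cells adapted to each medium (500 or 1000 cells/well) were exposed for 48 h at 37°C to library compounds in DMSO across 11 threefold doses, 47 μM down to 0.79 nM. Viability was read by CellTiter-Glo One luminescence and normalised per plate to DMSO and cell-free wells. A four-parameter log-logistic fit over log10 doses was integrated by trapezoidal rule. This yielded the area under the curve, with over-full-viability curves scaled and quality-control failures dropped.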

[2] = system: NOMO1; assay: as above
Summary of the method: as §1

[3] = system: SEM cells; assay: as above
Summary of the method: as §1

[4] = system: SEM cells; assay: cell viability relative to DMSO control; higher = less cytotoxic
Summary of the method: (§2)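 NOMO1 or SEM (500 cells/well) or P12-Ichikawa (1000 cells/well) leukemia cells were adapted for at least four passages in each medium. They were seeded in 1536-well plates (5 μl) and pin-dosed with library compounds in DMSO over an 11-point threefold series, 47 μM to 0.79 nM. CellTiter-Glo One luminescence was read after 48 h at 37°C. Viability is the per-plate percentage relative to DMSO wells, with cell-free wells as background.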

[5] = system: P12-Ichikawa; assay: as above
Summary of the method: as §2

[6] = system: NOMO1; assay: as above
Summary of the method: as §2

Cc1ccc(CN2CCNCC2)cc1NC(=O)CNc1ccc(F)c(F)c1
AUC of viability dose-response curve
Conditions | [1] | [2] | [3]
HPLM + 10% dialyzed FBS | 454 | 435 | 447
RPMI 5 mM glucose + 10% FBS | 457 | 459 | 464
RPMI 5 mM glucose + 10% dialyzed FBS | 445 | 444 | 431

CCc1cccc(CC)c1NC(=O)N1Cc2[nH]nc(NC(=O)c3ccc(N4CCN(C)CC4)cc3)c2C1
[4], HPLM + 10% dialyzed FBS
Conditions | cell viability [%]
0.000781 µM | 100
0.00234 µM | 121
0.00702 µM | 130
0.0211 µM | 128
0.0632 µM | 133
0.19 µM | 138
0.569 µM | 113
1.71 µM | 89.2
5.12 µM | 57.5
15.4 µM | 22.1
46.1 µM | 7.86

AUC of viability dose-response curve
Conditions | [1] | [2] | [3]
HPLM + 10% dialyzed FBS | 356 | 415 | 372
RPMI 5 mM glucose + 10% FBS | 361 | 403 | 341
RPMI 5 mM glucose + 10% dialyzed FBS | 373 | 394 | 344

C=CCNC1=C2C[C@@H](C)C[C@H](OC)[C@H](O)[C@@H](C)/C=C(\C)[C@H](OC(N)=O)[C@@H](OC)/C=C\C=C(/C)C(=O)NC(=CC1=O)C2=O
AUC of viability dose-response curve
Conditions | [1] | [2] | [3]
HPLM + 10% dialyzed FBS | 403 | 390 | 310
RPMI 5 mM glucose + 10% FBS | 380 | 389 | 285
RPMI 5 mM glucose + 10% dialyzed FBS | 384 | 385 | 291

COc1cc(C(C)=O)ccc1OCCCN1CCC(c2noc3cc(F)ccc23)CC1
cell viability [%]
Conditions | [4] | [5]
HPLM + 10% dialyzed FBS, 0.000781 µM | 110 | 118
HPLM + 10% dialyzed FBS, 0.00234 µM | 112 | 115
HPLM + 10% dialyzed FBS, 0.00702 µM | 118 | 119
HPLM + 10% dialyzed FBS, 0.0211 µM | 95 | 127
HPLM + 10% dialyzed FBS, 0.0632 µM | 99.3 | 124
HPLM + 10% dialyzed FBS, 0.19 µM | 124 | 127
HPLM + 10% dialyzed FBS, 0.569 µM | 123 | 129
HPLM + 10% dialyzed FBS, 1.71 µM | 123 | 124
HPLM + 10% dialyzed FBS, 5.12 µM | 122 | 129
HPLM + 10% dialyzed FBS, 15.4 µM | 128 | 125
HPLM + 10% dialyzed FBS, 46.1 µM | 88.7 | 120
RPMI 5 mM glucose + 10% dialyzed FBS, 0.000781 µM | 113 | –
RPMI 5 mM glucose + 10% dialyzed FBS, 0.00234 µM | 121 | –
RPMI 5 mM glucose + 10% dialyzed FBS, 0.00702 µM | 137 | –
RPMI 5 mM glucose + 10% dialyzed FBS, 0.0211 µM | 135 | –
RPMI 5 mM glucose + 10% dialyzed FBS, 0.0632 µM | 115 | –
RPMI 5 mM glucose + 10% dialyzed FBS, 0.19 µM | 142 | –
RPMI 5 mM glucose + 10% dialyzed FBS, 0.569 µM | 160 | –
RPMI 5 mM glucose + 10% dialyzed FBS, 1.71 µM | 135 | –
RPMI 5 mM glucose + 10% dialyzed FBS, 5.12 µM | 158 | –
RPMI 5 mM glucose + 10% dialyzed FBS, 15.4 µM | 138 | –
RPMI 5 mM glucose + 10% dialyzed FBS, 46.1 µM | 106 | –

AUC of viability dose-response curve
Conditions | [1] | [2] | [3]
HPLM + 10% dialyzed FBS | 470 | 468 | 468
RPMI 5 mM glucose + 10% FBS | 472 | 468 | 446
RPMI 5 mM glucose + 10% dialyzed FBS | 471 | 464 | 455

CC(C)n1nc(-c2ccc3oc(N)nc3c2)c2c(N)ncnc21
cell viability [%]
Conditions | [4] | [5] | [6]
HPLM + 10% dialyzed FBS, 0.000781 µM | 87.7 | 95.5 | 96.9
HPLM + 10% dialyzed FBS, 0.00234 µM | 73.7 | 91 | 75.9
HPLM + 10% dialyzed FBS, 0.00702 µM | 63.3 | 86.3 | 65.1
HPLM + 10% dialyzed FBS, 0.0211 µM | 56.4 | 79.7 | 62.6
HPLM + 10% dialyzed FBS, 0.0632 µM | 44.5 | 78 | 55.3
HPLM + 10% dialyzed FBS, 0.19 µM | 38.5 | 75 | 53.6
HPLM + 10% dialyzed FBS, 0.569 µM | 31.8 | 68.7 | 52.2
HPLM + 10% dialyzed FBS, 1.71 µM | 29.9 | 67.2 | 55
HPLM + 10% dialyzed FBS, 5.12 µM | 23.7 | 66.7 | 50.6
HPLM + 10% dialyzed FBS, 15.4 µM | 18.6 | 59.9 | 33.1
HPLM + 10% dialyzed FBS, 46.1 µM | 3.79 | 44.5 | 26.3
RPMI 5 mM glucose + 10% FBS, 0.000781 µM | 106 | 74.4 | 93.1
RPMI 5 mM glucose + 10% FBS, 0.00234 µM | 101 | 71.5 | 96.5
RPMI 5 mM glucose + 10% FBS, 0.00702 µM | 70.3 | 64.1 | 83.3
RPMI 5 mM glucose + 10% FBS, 0.0211 µM | 62.4 | 61.5 | 77.6
RPMI 5 mM glucose + 10% FBS, 0.0632 µM | 59.3 | 52 | 66.6
RPMI 5 mM glucose + 10% FBS, 0.19 µM | 42.4 | 54.4 | 59.2
RPMI 5 mM glucose + 10% FBS, 0.569 µM | 38.3 | 51 | 56.8
RPMI 5 mM glucose + 10% FBS, 1.71 µM | 29.1 | 46.8 | 50.3
RPMI 5 mM glucose + 10% FBS, 5.12 µM | 25.1 | 41.4 | 49.9
RPMI 5 mM glucose + 10% FBS, 15.4 µM | 4.15 | 37.2 | 38.7
RPMI 5 mM glucose + 10% FBS, 46.1 µM | 3.72 | 31.3 | 34.4
RPMI 5 mM glucose + 10% dialyzed FBS, 0.000781 µM | 78.2 | 82.5 | 83.4
RPMI 5 mM glucose + 10% dialyzed FBS, 0.00234 µM | 78.8 | 78.9 | 74.5
RPMI 5 mM glucose + 10% dialyzed FBS, 0.00702 µM | 70.9 | 67.1 | 67.2
RPMI 5 mM glucose + 10% dialyzed FBS, 0.0211 µM | 54.8 | 59.1 | 58.5
RPMI 5 mM glucose + 10% dialyzed FBS, 0.0632 µM | 52.6 | 61.7 | 59.6
RPMI 5 mM glucose + 10% dialyzed FBS, 0.19 µM | 44 | 53.8 | 52.6
RPMI 5 mM glucose + 10% dialyzed FBS, 0.569 µM | 39.7 | 45 | 51.7
RPMI 5 mM glucose + 10% dialyzed FBS, 1.71 µM | 36.1 | 47.3 | 48.6
RPMI 5 mM glucose + 10% dialyzed FBS, 5.12 µM | 28.6 | 41.5 | 43.2
RPMI 5 mM glucose + 10% dialyzed FBS, 15.4 µM | 15.8 | 35.6 | 35.7
RPMI 5 mM glucose + 10% dialyzed FBS, 46.1 µM | 4.72 | 32 | 31.3

Cc1cccc(C#Cc2ccccc2)n1
cell viability [%]
Conditions | [4] | [5]
HPLM + 10% dialyzed FBS, 0.000781 µM | 119 | 120
HPLM + 10% dialyzed FBS, 0.00234 µM | 140 | 128
HPLM + 10% dialyzed FBS, 0.00702 µM | 123 | 124
HPLM + 10% dialyzed FBS, 0.0211 µM | 134 | 124
HPLM + 10% dialyzed FBS, 0.0632 µM | 132 | 125
HPLM + 10% dialyzed FBS, 0.19 µM | 117 | 122
HPLM + 10% dialyzed FBS, 0.569 µM | 137 | 112
HPLM + 10% dialyzed FBS, 1.71 µM | 134 | 121
HPLM + 10% dialyzed FBS, 5.12 µM | 116 | 113
HPLM + 10% dialyzed FBS, 15.4 µM | 106 | 117
HPLM + 10% dialyzed FBS, 46.1 µM | 89.5 | 105
RPMI 5 mM glucose + 10% FBS, 0.000781 µM | 128 | –
RPMI 5 mM glucose + 10% FBS, 0.00234 µM | 118 | –
RPMI 5 mM glucose + 10% FBS, 0.00702 µM | 109 | –
RPMI 5 mM glucose + 10% FBS, 0.0211 µM | 123 | –
RPMI 5 mM glucose + 10% FBS, 0.0632 µM | 128 | –
RPMI 5 mM glucose + 10% FBS, 0.19 µM | 118 | –
RPMI 5 mM glucose + 10% FBS, 0.569 µM | 128 | –
RPMI 5 mM glucose + 10% FBS, 1.71 µM | 121 | –
RPMI 5 mM glucose + 10% FBS, 5.12 µM | 102 | –
RPMI 5 mM glucose + 10% FBS, 15.4 µM | 105 | –
RPMI 5 mM glucose + 10% FBS, 46.1 µM | 84.4 | –

AUC of viability dose-response curve
Conditions | [1] | [2] | [3]
HPLM + 10% dialyzed FBS | 456 | 461 | 456
RPMI 5 mM glucose + 10% FBS | 445 | 464 | 455
RPMI 5 mM glucose + 10% dialyzed FBS | 450 | 463 | 449

C=C1/C(=C\C=C2/CCC[C@]3(C)[C@@H]([C@H](C)/C=C/[C@H](C)C(C)C)CC[C@@H]23)C[C@@H](O)C[C@@H]1O
AUC of viability dose-response curve
Conditions | [1] | [2] | [3]
HPLM + 10% dialyzed FBS | 399 | 398 | 446
RPMI 5 mM glucose + 10% FBS | 404 | 423 | 438
RPMI 5 mM glucose + 10% dialyzed FBS | 408 | 416 | 450
